We go through three molecules from US9012497B2, “Cyclohexyl carbamate compounds as active anti-cellulite ingredients” (Symrise AG, priority 2010, dated 2015).

As a reminder, the IC50 is the concentration needed to halve the response being measured. A high value points to lower potency.

The target in one experiment is T1, pancreatic lipase (PL) (Sus scrofa, UniProt P00591).
T1 construct: purchased Sigma-Aldrich
T1 sequence (P00591 1-450): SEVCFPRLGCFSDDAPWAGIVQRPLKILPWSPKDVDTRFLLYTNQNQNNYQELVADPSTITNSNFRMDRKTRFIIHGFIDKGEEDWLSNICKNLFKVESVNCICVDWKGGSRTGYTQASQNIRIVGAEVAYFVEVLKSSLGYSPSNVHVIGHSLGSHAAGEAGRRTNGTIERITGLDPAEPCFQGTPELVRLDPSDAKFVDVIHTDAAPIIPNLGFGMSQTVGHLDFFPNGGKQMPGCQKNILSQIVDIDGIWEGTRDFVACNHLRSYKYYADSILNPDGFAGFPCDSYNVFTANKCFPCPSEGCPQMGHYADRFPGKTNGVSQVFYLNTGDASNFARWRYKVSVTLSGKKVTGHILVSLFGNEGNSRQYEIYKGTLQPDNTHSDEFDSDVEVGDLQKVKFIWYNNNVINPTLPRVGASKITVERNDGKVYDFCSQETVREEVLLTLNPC
As to the kind of experiment: Inhibition of PL, MUF oleate hydrolysis. Type of experiment: biochemical. The note with it: mean values of at least 2 independent tests. The text has this: Lipogenesis is perceived as the storage of triglycerides in adipocytes. The inhibition of this storage can take place by means of the inhibition of the activity of extracellular lipoprotein lipase (LPL) in that the hydrolysis of extracellular triglycerides and therefore the absorption of free fatty acids by adipocytes are reduced. As a preliminary test, the inhibition of pancreatic lipase (PL) is investigated.
PL (Sigma-Aldrich), in the presence of test substances in different use concentrations has methylumbelliferyl oleate (MUF oleate) added as a substrate. Fluorescent methylumelliferon (MUF), is produced by hydrolysis of the MUF oleate by PL and is quantified. The inhibition of the hydrolysis of the MUF oleate is a measure of the inhibition of activity of the PL.
[formula] wherein MUF test substance=MUF concentration of the wells with test substance and with PL MUF control=MUF concentration of the wells without test substance, but with PL MUF control without PL=MUF concentration of the wells without test substance and without PL
The IC50 is calculated from the inhibition of the PL [%] in a series of dilutions of tested samples. This is the concentration, at which the activity of the PL is 50% inhibited.

The test system of experiment [1] is ex vivo pig skin model including subcutis fat layer. The experiment in a line: Lipolysis assay, ex vivo pig skin model, free glycerol release. The format is cell-based. The note with it: conc. 0.1% in cosmetic test preparation, topical on ex vivo pig skin, 24 hours, versus placebo. The text has this: Full thickness pig skin patches (pig skin model including subcutis fat layer as described in EP 1 939 279) are excised from the dorsal part of young pig slaughtered for meat. The ex vivo pig skin models have a size of 7×3 mm (diameter×height). They are placed on a titanium grid dipped in culture medium. On top of the skin samples formulations are applied. In parallel to a cosmetic test preparation containing one or more compounds of formula (I) a placebo preparation without any compound of formula (I) is applied as reference (blank).
After 24 hours of incubation, the quantification of free glycerol in the medium surrounding the pig skin models was performed. The glycerol is released by the cells after hydrolysis of triglycerides in the cells of the adipose tissue and is a measure of the lipolysis of the pig skin models. The quantification of the free glycerol is carried out based on an enzymatic method with a free glycerol reagent.
Cosmetic Test Preparation:
Phases A and B are heated to 70° C. separately. Pemulen TR1 as well as Ultrez-21 are dispersed in phase B when heated to 70° C. Phase B/C is added to phase A by mixing with an Ultra Turrax, followed by emulsifying. Phase D is slowly added to phase A/B/C using a paddle mixer and a pH 5.5-6 is adjusted. The formulation is cooled down while mixing with a paddle mixer. Phase E is prepared by dissolving one or more compounds of formula (I) in Hydrolite-5. Subsequently, phase E is added to the mixture of phase A-D.
The stimulation of the lipolysis in the presence of test substances is calculated according to the following equation:
[formula] wherein A test substance=absorption of the wells with medium of ex vivo skin models, on which the formulation containing the test substance was applied A placebo=absorption of the wells with medium of ex vivo skin models, on which the placebo without test substance was applied

A further experiment concerns 3T3 cells. The experiment in a line: ATP assay, inhibition of proliferation. The note with it: Mus musculus, NIH3T3, 48 h, non-cytotoxic dilutions, mean values of at least 2 independent tests. Type of experiment: cell-based. On the procedure:
3T3 cells (mouse […] fibroblasts) were seeded in 96-well plates. After 24 h cultivation at 37° C. and 5% CO2 in DMEM (Dulbecco's Modified Eagle Medium), cells were treated with test substances for another 48 h. […] ATP content in the cells is measured by
The inhibition of proliferation was calculated by:
[formula] wherein RLU test substance=relative luminescent units of the wells with test substance and with cells RLU control=relative luminescent units of the wells without test substance, but with cells RLU control without cells=relative luminescent units of the wells without test substance and without cells
The IC50 is calculated from the proliferation inhibition [%] in a series of non-cytotoxic dilutions of tested samples. This is the concentration at which the proliferation is 50% inhibited.

As to `CCCCNC(=O)OC1C(C)CCC(C)C1C` (stereo not drawn) [BIO1617, Butyl-carbamic acid 2,3,6-trimethyl-cyclohexyl ester], the half-maximal inhibitory concentration (IC50) at pancreatic lipase (PL) was 1380 µM; in the experiment with 3T3 cells it was 244 µM. In experiment [1], the Stimulation of lipolysis is on record as 21%.

Consider `CCCCNC(=O)OC1CCCCC1C(C)C` (stereo not drawn) [BIO1841, Butyl-carbamic acid 2-isopropyl-cyclohexyl ester], for which the IC50 on pancreatic lipase (PL) stood at 780 µM; in the experiment with 3T3 cells, 255 µM. For the same molecule, the Stimulation of lipolysis in experiment [1] was 25%.

Consider `CCC(C)NC(=O)OC1CCCC(C)C1C` (stereo not drawn) [BIO1845, sec-Butyl-carbamic acid 2,3-dimethyl-cyclohexyl ester], for which the IC50 against pancreatic lipase (PL) stood at 720 µM; in the experiment on 3T3 cells, 345 µM. Besides, in experiment [1], the Stimulation of lipolysis is recorded as 29%.
